In patent US20060069157A1, “Method of ameliorating or abrogating the effects of a neurodegenerative disorder, such as Huntington's disease, by sodium butyrate chemotherapy” (U.S. DEPARTMENT OF VETERANS AFFAIRS, priority 2004, published 2006):

Experiments:
[1] = test system: R6/2 transgenic mouse model of HD; test: Survival of R6/2 mice, intraperitoneal dose response; assay type: in vivo
Description: Animals: The Bedford VA Medical Center laboratories have maintained a stable colony of R6/2 HD mice for over 6 years, with founders originating from Jackson Laboratories (Bar Harbor, Me., USA). Male transgenic HD mice of the R6/2 strain were bred with females from their background strain (B6CBAFI/J). Offspring were genotyped using a PCR assay on tail DNA. We have standardized criteria to ensure homogeneity of the cohorts within the testing groups (Dedeoglu et al., 2002). Mice were randomized from 28 litters all within 3 days from the same ‘f’ generation. Body weights were taken at 20 days and mice were equally distributed according to weight within each cohort. Mice under 7 g at 20 days were excluded from the experiments. The animals were housed 5/cage under standard conditions with free access to water and food. The mice were handled under the same conditions by one investigator. Since we have not observed gender differences in survival in the R6/2 transgenic HD mouse model (Ferrante et al., 2000), female mice were used in the experimental paradigms. These experiments were carried out in accordance with the NIH Guide for the Care and Use of Laboratory Animals, and were approved by both the Veterans Administration and Boston University Animal Care Committees.
Intraperitoneal Dosing: Based upon previous studies (Egorin et al., 1999), a dose response study was performed, treating groups of wild type mice (n=10) and littermate R6/2 mice (n=20) with 100, 200, 400, 600, 1,200, 5,000, and 10,000 mg/kg daily intraperitoneal injection (100 Êl) of sodium butyrate (Acros Organics/Fisher Scientific) dissolved in PBS and made fresh daily. […]
Survival: R6/2 mice were assessed for morbidity and mortality twice daily, mid morning and late afternoon. Motor performance and ability to feed were closely monitored and used as the basis for determining when to euthanize the mice. […] In addition, deaths occurred overnight and were recorded the following morning. […]
Statistics: The data are expressed as the mean+standard error of the mean. […] Survival data was analyzed by the Kaplan-Meier survival curves.

Body weight in R6/2 mice = assay type: in vivo, mouse; conditions: same plateau in PBS-treated mice
Experimental: Intraperitoneal Dosing: Based upon previous studies (Egorin et al., 1999), a dose response study was performed, treating groups of wild type mice (n=10) and littermate R6/2 mice (n=20) with 100, 200, 400, 600, 1,200, 5,000, and 10,000 mg/kg daily intraperitoneal injection (100 Êl) of sodium butyrate (Acros Organics/Fisher Scientific) dissolved in PBS and made fresh daily. Control groups were treated with PBS injection or untreated. Approximately 240 mice were used for behavioral and survival analyses.
Clinical Assessment: Both motor performance and body weight were measured throughout the study. Training sessions were given on days 21 and 22 to acclimate the mice to the rotarod apparatus (Columbus Instruments, Columbus, Ohio). Motor performance (constant rotation at 16 rpm) was assessed weekly from 23-63 days of age and twice weekly from 63 days of age in the sodium butyrate-treated, PBS-treated R6/2 mice, and wild type littermate control mice. Three 60 sec trials were given during each session and averaged. Body weights were recorded twice weekly at the same time of day in all groups.

[2] = test system: mRNA expression in R6/2 striatum and cortex; test: Microarray gene expression analysis (U74Av2) of striatum and cortex; assay type: in vivo, mouse; set-up: key to Array, NaBu Txd R6/2 vs R6/2: I = increased; D = decreased; NC = no change
Experimental: Microarray Gene Expression Analysis: Beginning at six weeks of age, four mice were treated for 2 weeks with daily intraperitoneal injections (1.2 g/kg) of sodium butyrate. Mice were euthanized within 60 minutes of the last injection and cortical and striatal brain tissues were dissected separately and snap frozen on dry ice. In parallel, samples from four untreated R6/2 and four wild-type mice were collected in the same manner. One microarray sample was prepared from 10 Êg of total RNA from each tissue and hybridized to one U74Av2 array (Affymetrix). Four independent pair-wise comparisons were performed using MAS 5.0 software (Affymetrix) to evaluate gene expression changes between sodium butyrate-treated R6/2 and untreated R6/2 animals and between untreated R6/2 and untreated wild-type animals. Difference calls were scored, and only mRNAs that received difference calls in the same direction (increased or decreased) in at least 3 of the 4 pair-wise comparisons were included for presentation in the present study.

Drosophila model of HD = Drosophila model of HD (Steffan 2001); cited from earlier work
Sp1 = conditions: wild type B6CBA mice at 8 weeks of age after 2 weeks of treatment (Ryu, 2003a); cited from earlier work
[3] = Angiomotin like 2 mRNA, AI854404, 160131_at, Cortex, treated vs untreated R6/2
[4] = Arginine vasopressin mRNA, M88354, 93381_at, Cortex, treated vs untreated R6/2
[5] = DNAJ/Heat shock protein 40 mRNA, AB028272, 96254_at, Striatum, treated vs untreated R6/2
[6] = Dynamin mRNA, L31397, 103031_g_at, Cortex, treated vs untreated R6/2
[7] = Erythroid differentiation regulator mRNA, AJ007909, 98525_f_at, Striatum, treated vs untreated R6/2
[8] = Hemoglobin, alpha adult chain 1 mRNA, V00714, 94781_at, Striatum + Cortex, treated vs untreated R6/2
[9] = Hemoglobin, beta 1 mRNA, V00722, 103534_at, Cortex, treated vs untreated R6/2
[10] = Hemoglobin, beta adult major chain mRNA, J00413, 101869_s_at, Striatum + Cortex, treated vs untreated R6/2
[11] = Heterogeneous nuclear ribonucleoprotein A1 mRNA, AI183202, 92724_at, Striatum, treated vs untreated R6/2
[12] = MAP kinase phosphatase-1 (MKP-1) mRNA, X61940, 104598_at, Striatum + Cortex, 1.2 g/kg i.p. 2 weeks vs untreated R6/2
[13] = MAP kinase phosphatase-3 (MKP-3) mRNA, AI845584, 93285_at, Cortex, treated vs untreated R6/2
[14] = Microtubule-associated protein tau mRNA, M18775, 102431_at, Cortex, treated vs untreated R6/2
[15] = Protein phosphatase 1B, beta isoform mRNA, D45859, 101836_at, Striatum, treated vs untreated R6/2
[16] = Transthyretin mRNA, D00073, 95350_at, Striatum, treated vs untreated R6/2
[17] = Unknown mRNA, AA711516, 96302_at, Striatum, treated vs untreated R6/2
[18] = Unknown mRNA, AI153421, 96215_f_at, Striatum, treated vs untreated R6/2
[19] = Unknown mRNA, AI451558, 97161_at, Striatum, treated vs untreated R6/2
[20] = Unknown mRNA, AV330064, 161114_i_at, Cortex, treated vs untreated R6/2
[21] = Unknown mRNA, C79248, 94689_at, Striatum + Cortex, treated vs untreated R6/2
[22] = c-fos oncogene mRNA, V00727, 160901_at, Cortex, treated vs untreated R6/2

For CCCC(=O)[O-].[Na+] [sodium butyrate], the extension of survival ([1]; 1,200 mg/kg/d i.p. from day 21, vs PBS-treated R6/2 mice, p<0.001) was 20.8%, the “time at which mice became moribund and died” value ([1]; 5 g/kg/d i.p., treatment initiated at 21 days) was 1 to 11 days and the “morbidity and mortality at onset of treatment” value ([1]; 5,000 and 10,000 mg/kg/d i.p.) was “marked rapidly-coursing morbidity and mortality”. For the same molecule, the “body weight plateau until death” value (Body weight in R6/2 mice) was 19-20 gms, the “% Change calls” value [2, 3] was 100% and the Direction of change [2, 3] was “Increase”. The “% Change calls” value [2, 4] was 75%, the Direction of change [2, 4] was “Increase” and the “% Change calls” value [2, 5] was 75%. For the same molecule, the Direction of change [2, 5] was “Increase”, the “% Change calls” value [2, 6] was 75% and the Direction of change [2, 6] was “Decrease”. For the same molecule, the “% Change calls” value [2, 7] was 100%, the Direction of change [2, 7] was “Decrease” and the “% Change calls” value [2, 8] was 100%. For the same molecule, the Direction of change [2, 8] was “Increase”, the “% Change calls” value [2, 9] was 75% and the Direction of change [2, 9] was “Increase”. For the same molecule, the “% Change calls” value [2, 10] was 100%, the Direction of change [2, 10] was “Increase” and the “% Change calls” value [2, 11] was 75%. For the same molecule, the Direction of change [2, 11] was “Decrease”, the “% Change calls” value [2, 12] was 100% and the Direction of change [2, 12] was “Increase”. The “% Change calls” value [2, 13] was 75%, the Direction of change [2, 13] was “Increase” and the “Array, NaBu Txd R6/2 vs R6/2” value ([2]; MKP-1 mRNA, Cortex) was “I”. For the same molecule, the “Array, NaBu Txd R6/2 vs R6/2” value ([2]; MKP-1 mRNA, Striatum) was “I”, the “% Change calls” value [2, 14] was 75% and the Direction of change [2, 14] was “Decrease”. For the same molecule, the “Array, NaBu Txd R6/2 vs R6/2” value ([2]; Preproenkephalin mRNA, Striatum) was “NC”, the “% Change calls” value [2, 15] was 75% and the Direction of change [2, 15] was “Increase”. For the same molecule, the “% Change calls” value [2, 16] was 75%, the Direction of change [2, 16] was “Decrease” and the “% Change calls” value [2, 17] was 75%. For the same molecule, the Direction of change [2, 17] was “Decrease”, the “% Change calls” value [2, 18] was 75% and the Direction of change [2, 18] was “Decrease”. The “% Change calls” value [2, 19] was 75%, the Direction of change [2, 19] was “Decrease” and the “% Change calls” value [2, 20] was 75%. The Direction of change [2, 20] was “Decrease”, the “% Change calls” value [2, 21] was 75% and the Direction of change [2, 21] was “Decrease”. The “% Change calls” value [2, 22] was 100%, the Direction of change [2, 22] was “Increase” and the “number of mRNA changes” value ([2]; treated R6/2 vs untreated R6/2, striatum and cortex, 1.2 g/kg i.p. 2 weeks) was 20. The “Array, NaBu Txd R6/2 vs R6/2” value ([2]; α-globin mRNA, Cortex) was “I”, the “Array, NaBu Txd R6/2 vs R6/2” value ([2]; α-globin mRNA, Striatum) was “I” and the “Array, NaBu Txd R6/2 vs R6/2” value ([2]; β-globin mRNA, Cortex) was “I”. The “Array, NaBu Txd R6/2 vs R6/2” value ([2]; β-globin mRNA, Striatum) was “I”, the “photoreceptor neuron degeneration and lethality” value (Drosophila model of HD) was “slow photoreceptor neuron degeneration and ameliorate lethality” and the Sp1 acetylation (Sp1) was “significantly augmented”.
